{"source": "patent US11919901B2", "about": "(Syndax Pharmaceuticals, Inc., priority 2021, dated 2024)"}
{"system": "MV4-11 cells", "assay": "Cell proliferation assay MV4;11 (CellTiter-Glo, 72 hours)", "format": "cell-based", "details": "Homo sapiens; MV4;11 leukemia cell line, 72 hours; read-out: MV4; 11 IC50", "summary_of_the_method": "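MV4-11 cells (MLL1-AF4 fusion) exposed 72 h at 37 °C to 8 compound concentrations, final 0.632–2000 nM. Viability by CellTiter-Glo luminescence as % of vehicle RLU; % max inhibition = 100 − viability at top concentration.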", "units": {"IC50": "nM"}}
{"smiles": "CCN(C(=O)c1cc(F)ccc1Oc1cncnc1N1CC2(CCN(C[C@@H]3CC[C@@H](NS(N)(=O)=O)CO3)CC2)C1)C(C)C", "note": "[Example 73, N-Ethyl-5-fluoro-N-isopropyl-2-((4-(7-(((2S,5R)-5-(sulfamoylamino)tetrahydro-2H-pyran-2-yl)methyl)-2,7-diazaspiro[3.5]nonan-2-yl)pyrimidin-5-yl)oxy)benzamide]", "IC50": "100 to 1000"}
{"smiles": "CCN(C(=O)c1cc(F)ccc1Oc1cncnc1N1CC2(CCN(C[C@@H]3CC[C@@H](NS(=O)(=O)NC)CO3)CC2)C1)C(C)C", "note": "[Example 76, N-Ethyl-5-fluoro-N-isopropyl-2-((4-(7-(((2S,5R)-5-((N-methylsulfamoyl)amino)tetrahydro-2H-pyran-2-yl)methyl)-2,7-diazaspiro[3.5]nonan-2-yl)pyrimidin-5-yl)oxy)benzamide]", "IC50": "< 100"}
{"smiles": "CC(C)N(C(=O)c1cc(F)ccc1Oc1cncnc1N1CC2(CCN(C[C@@H]3CC[C@@H](NS(=O)(=O)N(C)C)CO3)CC2)C1)C(C)C", "note": "[Example 77, 2-((4-(7-(((2S,5R)-5-((N,N-Dimethylsulfamoyl)amino)tetrahydro-2H-pyran-2-yl)methyl)-2,7-diazaspiro[3.5]nonan-2-yl)pyrimidin-5-yl)oxy)-5-fluoro-N,N-diisopropylbenzamide]", "IC50": "< 100"}
{"smiles": "CC(C)N(C(=O)c1cc(F)ccc1Oc1cncnc1N1CC2(CCN(C[C@@H]3CC[C@@H](NS(=O)(=O)N4CCOCC4)CO3)CC2)C1)C(C)C", "note": "[Example 78, 5-Fluoro-N,N-diisopropyl-2-((4-(7-(((2S,5R)-5-(morpholine-4-sulfonamido)tetrahydro-2H-pyran-2-yl)methyl)-2,7-diazaspiro[3.5]nonan-2-yl)pyrimidin-5-yl)oxy)benzamide]", "IC50": "< 100"}
{"smiles": "CC(C)N(C(=O)c1cc(F)ccc1Oc1cncnc1N1CC2(CCN(C[C@@H]3CC[C@@H](NS(=O)(=O)N4CCC4)CO3)CC2)C1)C(C)C", "note": "[Example 88, 2-((4-(7-(((2S,5R)-5-(Azetidine-1-sulfonamido)tetrahydro-2H-pyran-2-yl)methyl)-2,7-diazaspiro[3.5]nonan-2-yl)pyrimidin-5-yl)oxy)-5-fluoro-N,N-diisopropylbenzamide]", "IC50": "< 100"}
{"smiles": "CC(C)N(C(=O)c1cc(F)ccc1Oc1cncnc1N1CC2(CCN(C[C@@H]3CC[C@@H](NS(=O)(=O)N(C)C(C)C)CO3)CC2)C1)C(C)C", "note": "[Example 89, 5-Fluoro-N,N-diisopropyl-2-((4-(7-(((2S,5R)-5-((N-isopropyl-N-methylsulfamoyl)amino)tetrahydro-2H-pyran-2-yl)methyl)-2,7-diazaspiro[3.5]nonan-2-yl)pyrimidin-5-yl)oxy)benzamide]", "IC50": "< 100"}
{"smiles": "CC(C)N(C(=O)c1cc(F)ccc1Oc1cncnc1N1CC2(CCN(C[C@@H]3CC[C@@H](NS(N)(=O)=O)CO3)CC2)C1)C(C)C", "note": "[Example 90, 5-Fluoro-N,N-diisopropyl-2-((4-(7-(((2S,5R)-5-(sulfamoylamino)tetrahydro-2H-pyran-2-yl)methyl)-2,7-diazaspiro[3.5]nonan-2-yl)pyrimidin-5-yl)oxy)benzamide]", "IC50": "< 100"}
{"smiles": "CC(C)N(C(=O)c1cc(F)ccc1Oc1cncnc1N1CC2(CCN(C[C@@H]3CC[C@@H](NS(=O)(=O)N(C)C)CO3)CC2)C1)C1CC1", "note": "[Example 93, N-Cyclopropyl-2-((4-(7-(((2S,5R)-5-((N,N-dimethylsulfamoyl)amino)tetrahydro-2H-pyran-2-yl)methyl)-2,7-diazaspiro[3.5]nonan-2-yl)pyrimidin-5-yl)oxy)-5-fluoro-N-isopropylbenzamide]", "IC50": "< 100"}
{"smiles": "CC(C)N(CC(F)F)C(=O)c1cc(F)ccc1Oc1cncnc1N1CC2(CCN(C[C@@H]3CC[C@@H](NS(=O)(=O)N4CCOCC4)CO3)CC2)C1", "note": "[Example 94, N-(2,2-Difluoroethyl)-5-fluoro-N-isopropyl-2-((4-(7-(((2S,5R)-5-(morpholine-4-sulfonamido)tetrahydro-2H-pyran-2-yl)methyl)-2,7-diazaspiro[3.5]nonan-2-yl)pyrimidin-5-yl)oxy)benzamide]", "IC50": "< 100"}
{"smiles": "CC(C)N(CC(F)F)C(=O)c1cc(F)ccc1Oc1cncnc1N1CC2(CCN(C[C@@H]3CC[C@@H](NS(=O)(=O)N(C)C)CO3)CC2)C1", "note": "[Example 95, N-(2,2-Difluoroethyl)-2-((4-(7-(((2S,5R)-5-((N,N-dimethylsulfamoyl)amino)tetrahydro-2H-pyran-2-yl)methyl)-2,7-diazaspiro[3.5]nonan-2-yl)pyrimidin-5-yl)oxy)-5-fluoro-N-isopropylbenzamide]", "IC50": "< 100"}
{"smiles": "CC(C)N(CC(F)F)C(=O)c1cc(F)ccc1Oc1cncnc1N1CC2(CCN(C[C@@H]3CC[C@@H](NS(C)(=O)=O)CO3)CC2)C1", "note": "[Example 96, N-(2,2-Difluoroethyl)-5-fluoro-N-isopropyl-2-((4-(7-(((2S,5R)-5-(methylsulfonamido)tetrahydro-2H-pyran-2-yl)methyl)-2,7-diazaspiro[3.5]nonan-2-yl)pyrimidin-5-yl)oxy)benzamide]", "IC50": "< 100"}
{"smiles": "CCN(CC)S(=O)(=O)N[C@@H]1CC[C@@H](CN2CCC3(CC2)CN(c2ncncc2Oc2ccc(F)cc2C(=O)N(CC(F)F)C(C)C)C3)OC1", "note": "[Example 97, 2-((4-(7-(((2S,5R)-5-((N,N-Diethylsulfamoyl)amino)tetrahydro-2H-pyran-2-yl)methyl)-2,7-diazaspiro[3.5]nonan-2-yl)pyrimidin-5-yl)oxy)-N-(2,2-difluoroethyl)-5-fluoro-N-isopropylbenzamide]", "IC50": "< 100"}
{"smiles": "CC(C)N(CC(F)F)C(=O)c1cc(F)ccc1Oc1cncnc1N1CC2(CCN(C[C@@H]3CC[C@@H](NS(=O)(=O)N4CCC4)CO3)CC2)C1", "note": "[Example 99, 2-((4-(7-(((2S,5R)-5-(Azetidine-1-sulfonamido)tetrahydro-2H-pyran-2-yl)methyl)-2,7-diazaspiro[3.5]nonan-2-yl)pyrimidin-5-yl)oxy)-N-(2,2-difluoroethyl)-5-fluoro-N-isopropylbenzamide]", "IC50": "< 100"}
{"smiles": "CC(C)N(CC(F)F)C(=O)c1cc(F)ccc1Oc1cncnc1N1CC2(CCN(C[C@@H]3CC[C@@H](NS(=O)(=O)N(C)C(C)C)CO3)CC2)C1", "note": "[Example 101, N-(2,2-Difluoroethyl)-5-fluoro-N-isopropyl-2-((4-(7-(((2S,5R)-5-((N-isopropyl-N-methylsulfamoyl)amino)tetrahydro-2H-pyran-2-yl)methyl)-2,7-diazaspiro[3.5]nonan-2-yl)pyrimidin-5-yl)oxy)benzamide]", "IC50": "< 100"}
{"smiles": "CNS(=O)(=O)N[C@@H]1CC[C@@H](CN2CCC3(CC2)CN(c2ncncc2Oc2ccc(F)cc2C(=O)N(CC(F)F)C(C)C)C3)OC1", "note": "[Example 102, N-(2,2-Difluoroethyl)-5-fluoro-N-isopropyl-2-((4-(7-(((2S,5R)-5-((N-methylsulfamoyl)amino)tetrahydro-2H-pyran-2-yl)methyl)-2,7-diazaspiro[3.5]nonan-2-yl)pyrimidin-5-yl)oxy)benzamide]", "IC50": "< 100"}
{"smiles": "CC(C)N(CC(F)(F)F)C(=O)c1cc(F)ccc1Oc1cncnc1N1CC2(CCN(C[C@@H]3CC[C@@H](NS(=O)(=O)N(C)C)CO3)CC2)C1", "note": "[Example 107, 2-((4-(7-(((2S,5R)-5-((N,N-Dimethylsulfamoyl)amino)tetrahydro-2H-pyran-2-yl)methyl)-2,7-diazaspiro[3.5]nonan-2-yl)pyrimidin-5-yl)oxy)-5-fluoro-N-isopropyl-N-(2,2,2-trifluoroethyl)benzamide]", "IC50": "< 100"}
{"smiles": "CC(C)N(CC(F)(F)F)C(=O)c1cc(F)ccc1Oc1cncnc1N1CC2(CCN(C[C@@H]3CC[C@@H](NS(=O)(=O)N4CCOCC4)CO3)CC2)C1", "note": "[Example 108, 5-Fluoro-N-isopropyl-2-((4-(7-(((2S,5R)-5-(morpholine-4-sulfonamido)tetrahydro-2H-pyran-2-yl)methyl)-2,7-diazaspiro[3.5]nonan-2-yl)pyrimidin-5-yl)oxy)-N-(2,2,2-trifluoroethyl)benzamide]", "IC50": "< 100"}
{"smiles": "CC(C)N(CC(F)(F)F)C(=O)c1cc(F)ccc1Oc1cncnc1N1CC2(CCN(C[C@@H]3CC[C@@H](NS(=O)(=O)C(C)C)CO3)CC2)C1", "note": "[Example 109, 5-Fluoro-N-isopropyl-2-((4-(7-(((2S,5R)-5-((1-methylethyl)sulfonamido)tetrahydro-2H-pyran-2-yl)methyl)-2,7-diazaspiro[3.5]nonan-2-yl)pyrimidin-5-yl)oxy)-N-(2,2,2-trifluoroethyl)benzamide]", "IC50": "< 100"}
{"smiles": "CC(C)N(C(=O)c1cc(F)ccc1Oc1cncnc1N1CC2(CCN(C[C@@H]3CC[C@@H](NS(=O)(=O)C(C)C)CO3)CC2)C1)C1CC(F)(F)C1", "note": "[Example 110, N-(3,3-Difluorocyclobutyl)-5-fluoro-N-isopropyl-2-((4-(7-(((2S,5R)-5-((1-methylethyl)sulfonamido)tetrahydro-2H-pyran-2-yl)methyl)-2,7-diazaspiro[3.5]nonan-2-yl)pyrimidin-5-yl)oxy)benzamide]", "IC50": "< 100"}
{"smiles": "CC(C)N(C(=O)c1cc(F)ccc1Oc1cncnc1N1CC2(CCN(C[C@@H]3CC[C@@H](NS(=O)(=O)C4CC4)CO3)CC2)C1)C1CC(F)(F)C1", "note": "[Example 111, 2-((4-(7-(((2S,5R)-5-(Cyclopropanesulfonamido)tetrahydro-2H-pyran-2-yl)methyl)-2,7-diazaspiro[3.5]nonan-2-yl)pyrimidin-5-yl)oxy)-N-(3,3-difluorocyclobutyl)-5-fluoro-N-isopropylbenzamide]", "IC50": "< 100"}
{"smiles": "CC(C)N(C(=O)c1cc(F)ccc1Oc1cncnc1N1CC2(CCN(C[C@@H]3CC[C@@H](NS(=O)(=O)N(C)C)CO3)CC2)C1)C1CC(F)(F)C1", "note": "[Example 113, N-(3,3-Difluorocyclobutyl)-2-((4-(7-(((2S,5R)-5-((N,N-dimethylsulfamoyl)amino)tetrahydro-2H-pyran-2-yl)methyl)-2,7-diazaspiro[3.5]nonan-2-yl)pyrimidin-5-yl)oxy)-5-fluoro-N-isopropylbenzamide]", "IC50": "< 100"}
{"smiles": "CCN(CC)S(=O)(=O)N[C@@H]1CC[C@@H](CN2CCC3(CC2)CN(c2ncncc2Oc2ccc(F)cc2C(=O)N(C(C)C)C2CC(F)(F)C2)C3)OC1", "note": "[Example 114, 2-((4-(7-(((2S,5R)-5-((N,N-Diethylsulfamoyl)amino)tetrahydro-2H-pyran-2-yl)methyl)-2,7-diazaspiro[3.5]nonan-2-yl)pyrimidin-5-yl)oxy)-N-(3,3-difluorocyclobutyl)-5-fluoro-N-isopropylbenzamide]", "IC50": "< 100"}
